{"source": "patent EP0910652B1", "about": "“HORMONE-MEDIATED METHODS FOR […] EXOGENOUS GENES IN MAMMALIAN SYSTEMS, AND PRODUCTS RELATED THERETO” (THE SALK INSTITUTE FOR BIOLOGICAL STUDIES, priority 1996, dated 1997)", "key": {"[1]": {"tested_on": "CV-1 cells transfected with CMX-GEcR, CMX-hRXRa, and EcREx5-DMTV-Luc", "test": "Muristerone bioavailability: serum of injected mice tested on transfected CV-1 cells", "type": "in vivo", "description": "For muristerone bioavailability studies, adult mice were injected intraperitoneally with sesame oil with or without 10mg of muristerone, and were subsequently sacrificed for serum collection. After twelve hours, blood was drawn from the mice, and the serum was isolated by brief centrifugation of the whole blood. In order to conduct transfection assays to test for muristerone activity, serum from sesame oil injected mice was divided, and half was supplemented with muristerone to a final concentration of 10µM. The three batches of mouse serum were diluted 1:10 in DMEM and placed onto CV-1 cells transfected with CMX-GEcR, CMX-hRXRa, and EcREx5-DMTV-Luc."}, "[2]": {"tested_on": "VpEcR (SEQ ID NO:7) with RXR (CMX-hRXRa) in N13 cells", "test": "Ecdysone responsiveness in stable cell line N13 (293 cells), ß-galactosidase and luciferase reporters", "type": "cell-based", "details": "36 hours", "description": "Stable cell lines were generated containing the modified ecdysone receptor VpEcR, a heterodimeric partner (RXR), and an ecdysone inducible reporter (Figure 2). 293 cells were transfected with the following linearized plasmids, pRC-ESHß, EcREx5-ΔMTV-Luc, CMX-VpEcR, and CMX-hRXRa. The following day, the cells were split 1:10 and were allowed to recover one day prior to selection with 1mg/ml G418 (GIBCO). After 14 days of selection, 14 individual clones were isolated and grown separately in the presence of 0.5mg/ml G418.\nOne of these cell lines, N13, was grown in the presence or absence of 1µM muristerone for 20 hours. Cell lysates were then assayed for ß-galactosidase and luciferase activities as described in Example 1. X-gal staining was performed on the stable cell lines. Cells were fixed briefly with 10% formaldehyde in PBS and then stained with X-Gal (Molecular Probes, Eugene, OR) for 2 to 6 hours. After 24 hours of treatment with 1µM muristerone, 100% of the cells turned dark blue after 3 hours of staining. Thus, mammalian cells containing the modified ecdysone receptor VpEcR, a heterodimeric partner (RXR), and a reporter gene construct regulated by a modified ecdysone response element, function to efficiently express an exogenous gene in response to a ligand, e.g., ecdysone. […]\nFinally, the kinetics of muristerone mediated induction was measured. […]"}, "adult mice": {"tested_on": "adult mice", "test": "Toxicity study in adult mice", "type": "in vivo", "details": "20mg muristerone A in sesame oil, intraperitoneal, observed approximately two months", "description": "In order to use muristerone as a potential hormone in mice, its toxicity and bioavailability was examined. For toxicity studies, adult mice were injected intraperitonealy with 20mg of muristerone A suspended in sesame oil. The mice were then observed for approximately two months. […] In addition to the inert qualities of muristerone (an ecdysone), overexpression of VpEcR and RXR appears not to be toxic."}, "[3]": {"tested_on": "modified ecdysone receptor VpEcR (SEQ ID NO:7; N-terminal truncation of EcR fused to VP16 activation domain) with RXR", "test": "Transient transfection reporter assay in CV-1 cells, muristerone responsiveness", "type": "cell-based", "details": "1µM muristerone A vs no hormone", "description": "(§1) CV-1 cells were maintained in DMEM supplemented with 10% Fetal Bovine Serum. Transient transfections were performed using DOTAP transfection reagent (Boehringer-Mannheim). Transfections using ß-galactosidase as the reporter were assayed either by Galactolight luminescent assay (Tropix, Bedford, MA) or by standard liquid ONPG assay (Sigma, St. Louis, MO). The values were normalized by co-transfection of CMX-luciferase. Transfections using luciferase as the reporter were assayed by standard techniques using luciferin and ATP. These values were normalized by co-transfection of CMX-ß-galactosidase. Hormone treated cells were treated with ethanol, 50 µM Juvenile Hormone III (Sigma), 1µM muristerone A (Zambon, Bresso, IT), or 1µM dexamethasone (Sigma) unless otherwise noted."}, "pregnant mice": {"tested_on": "pregnant mice", "test": "Teratogenic study in pregnant mice", "type": "in vivo", "details": "20mg muristerone A in sesame oil, mother and pups observed for three months"}, "[4]": {"tested_on": "modified ecdysone receptor GEcR (SEQ ID NO:9; N-terminal transactivation domain of GR, DNA- and ligand-binding domains of EcR) with USP", "test": "Transient transfection reporter assay in CV-1 cells, muristerone responsiveness", "type": "cell-based", "details": "1µM muristerone A vs ethanol", "description": "as §1\n(§2) To maximize the sensitivity of the invention ecdysone inducible system, modifications of the ecdysone receptor were made. The N-terminal transactivation domain of the ecdysone receptor was replaced by the corresponding domain of the glucocorticoid receptor (GR), resulting in the modified ecdysone receptor GEcR (See Figure 1D). CV-1 cells were transfected with the plasmid CMX-GEcR encoding the modified ecdysone receptor as discussed above. After transfection, cells were either treated with ethanol or 1µM muristerone A. This hybrid modified ecdysone receptor boosted muristerone responsiveness from 3- to 11-fold in a transient transfection assay (Fig. 1A)."}, "[5]": {"tested_on": "modified ecdysone receptor GEcR (SEQ ID NO:9) with retinoid X receptor (RXR)", "test": "Transient transfection reporter assay in CV-1 cells, muristerone responsiveness", "type": "cell-based", "details": "1µM muristerone A vs ethanol", "description": "as §1, §2"}, "[6]": {"tested_on": "ecdysone receptor (EcR) with its natural heterodimeric partner USP", "test": "Transient transfection reporter assay in CV-1 cells, muristerone responsiveness", "type": "cell-based", "details": "1µM muristerone A vs ethanol", "description": "as §1, §2"}, "[7]": {"tested_on": "VpEcR and RXR (CD3-VpEcR; CD3-RXR) with ecdysone inducible reporter ESHß", "test": "Muristerone dependent gene expression in receptor/reporter transgenic mice, Northern blot", "type": "in vivo", "details": "10mg muristerone intraperitoneal, RNA isolated 48 hours after treatment", "description": "To produce transgenic mice, the following DNA constructs were prepared and subsequently injected into fertilized eggs: CD3-VpEcR, CD3-RXR, ESHß (Lee et al., J. Exp. Med. 175:1013-1025 (1992)). Two separate lines of transgenic mice were generated harboring either an ecdysone inducible reporter, ESHß, or a T-cell specific expression construct of VpEcR and RXR, respectively. The former are referred to as reporter mice, the latter are referred to as receptor mice, and double transgenic mice are referred to as receptor/reporter mice. Constructs CD3-VpEcR and CD3-RXR were mixed and coinjected, while ESHß was injected alone. Primary genotyping was performed by Southern blot analysis and the transmission of transgenic mice was monitored by dot blot analysis. Receptor mice were analyzed for VpEcR and RXR expression by Northern blot analysis of RNA collected from these mice. For Northern blot analysis, 15µg of total RNA obtained from the thymus, and various tissues as a control, was run on a denaturing gel and blotted onto a nitrocellulose membrane. The blot was probed with a radiolabeled ß-gal-specific probe and exposed on film for 2 days. These receptor mice were healthy, fertile, and appeared normal by visual inspection. In addition, the transgene was transferred to the offspring as expected by Mendelian genetics. […]"}}}
{"smiles": "CC(C)CC[C@@H](O)[C@](C)(O)[C@H]1CC[C@@]2(O)C3=CC(=O)[C@]4(O)C[C@@H](O)[C@@H](O)C[C@]4(C)[C@H]3[C@H](O)C[C@]12C", "note": "[muristerone A]", "values": [{"measurement": "luciferase activity of serum from muristerone treated mice", "setting": "[1]; 10mg muristerone intraperitoneal, serum after twelve hours, diluted 1:10 in DMEM", "result": "comparable to that seen from untreated mouse serum supplemented with 1µM muristerone"}, {"measurement": "activity when injected into mice", "setting": "[1]; injected into mice", "result": "maintains its activity"}, {"measurement": "inactivation by serum binding proteins", "setting": "[1]; injected into mice", "result": "nor inactivated by serum binding proteins"}, {"measurement": "blunting of activity due to association with serum proteins", "setting": "[1]; mouse serum", "result": "little or no blunting of activity"}, {"measurement": "inducibility", "setting": "[2]; final concentration 10µM muristerone, ß-galactosidase and luciferase reporters", "result": "~3 orders of magnitude"}, {"measurement": "induction", "setting": "[2]; muristerone concentrations as low as 100nM", "result": "One-hundred"}, {"measurement": "toxicity", "setting": "adult mice", "result": "neither toxic"}, {"measurement": "induction", "setting": "[3]", "result": 212, "unit": "fold"}, {"measurement": "teratogenicity", "setting": "pregnant mice", "result": "neither toxic, teratogenic"}, {"measurement": "muristerone responsiveness (induction)", "setting": "[4]", "result": 11, "unit": "fold"}, {"measurement": "induction", "setting": "[5]", "result": 34, "unit": "fold"}, {"measurement": "muristerone responsiveness (induction)", "setting": "[6]", "result": 3, "unit": "fold"}, {"measurement": "induction from an ecdysone inducible promoter in the thymus", "setting": "[7]", "result": "significant induction"}]}
